Assay results published in patent publication US20090156687A1, “Fab I and inhibition of apicomplexan parasites” (priority 2003, published 2009).
In brackets after ≈: the same amount, converted by molar mass. Read-outs that look alike come from different tables or passages of the source.

Columns and labels:
[1] = test system: Cryptosporidia; assay type: cell-based
[2] = test system: P. falciparum; assay: In vitro synergy with cerulein; design: species or system Plasmodium falciparum; details: cerulein (inhibitor of Fab F, B, H) with triclosan
[3] = test system: EPSP synthase; assay: EPSP synthase enzyme activity; assay type: biochemical, T. gondii; details: 1 mM
[4] = test system: P. falciparum; assay: microbe, parasite or virus in culture; assay type: cell-based, Plasmodium falciparum; details: for IC50: Plasmodium falciparum
Protocol: Because Fab I was located, the effects of triclosan on Plasmodium falciparum in vitro were investigated. For P. falciparum, the in vitro assays (Milhous et al., 1985; Oduola et al., 1988) were conducted using a modification of the semiautomated microdilution technique for assessing anti-folate antagonists. Instead of dialysed human plasma, 10% Albumax I (Gibco BRL), a serum-free substitute, was used to supplement the RPMI 1640 medium. All test compounds were dissolved in DMSO and diluted 400-fold into complete medium before serial dilution over 11 concentrations. Incubation was at 37° C. in 5% O2, 5% CO2 and 90% N2 for 48 h. [3H]-Hypoxanthine incorporation was measured as described previously (Milhous et al, 1985; Oduola et al, 1988).
P. falciparum. The in vitro assays (Oduala et al., 1988; Milhous et al., 1985) were conducted using a modification of the semiautomated microdilution technique for assessing antifolate antagonists. Instead of dialysed human plasma, 10% Albumaz I (Gibco BRL), a serum-free substitute, was used to supplement the RPMI 16-40 media. All test compounds were dissolved in DMSO and diluted 400-fold into complete media before serial dilution over 11 concentrations. Incubation was at 37° C. in 5% O2, 5% CO2 and 90% N2 for 48h, [3H]-Hypoxanthine incorporation was measured as described previously (13, 14).

[5] = test system: T. gondii; assay: T. gondii growth inhibition in human foreskin fibroblasts, 3H uracil uptake; assay type: cell-based, Toxoplasma gondii; details: for percentage inhibition of T. gondii uracil uptake: 125 nanograms per ml
Protocol: For T. gondii, growth inhibition was assessed over a 4-day period as described previously (Mack et al., 1984; Roberts et al., 1998; Zuther et al., 1999) using human foreskin fibroblasts (HFF) infected with 105 tachyzoites of the RH strain of T. gondii. The assays are based on microscopic visual inspection of infected and inhibitor treated cultures, and on quantitation of nucleic acid synthesis of the parasite by measuring uptake of 3H uracil into the parasite's nucleic acid. Uracil is not utilized by mammalian cells. Parasites present as tachyzoites (RH, Ptg., a clone derived from the Me49 strain), bradyzoites (Me49), and R5 mutants (mixed tachyzoites/bradyzoites of the Me49 strain that can be stage switched by culture conditions) (Bohne et al., 1993; Soete et al., 1994; Tomovo and Boothroyd, 1995; Weiss et al., 1992) are suitable for assay systems used to study effectsof inhibitors. Only the RH strain tachyzoites, cultured for up to 72 hours, had been used in previously reported assays. The use of Me49, Ptg, and R5 mutants are unique aspects of the methods used in these assays in this invention.
(§1) In these assays toxicity of a candidate inhibitor was assessed by its ability to prevent growth of human foreskin fibroblasts (HFF) after 4 days and after 8 days as measured by tritiated thymidine uptake and microscopic evaluation. Confluent monolayers of HFF were infected with tachyzoites and bradyzoites. Inhibitor was added one hour later. Non-toxic doses were used in parasite growth inhibition assays. Parasite growth was measured by ability to incorporate tritiated uracil during the last 48 hours of culture.
T. gondii in vitro. Growth inhibition was assessed over a 4-day period as described previously by Roberts et al., 1998; Zuther et al., 1999; and Mack et al., 1984, all incorporated by reference, using human foreskin fibroblasts (HFF) infected with 105 tachyzoites of the RH strain of T. gondii. Uptake of 3H uracil was determined. Evaluation of slides of preparations containing HFF, Toxoplasma and inhibitors were made.

[6] = test system: human foreskin fibroblasts (HFF); assay: Toxicity to host cells, tritiated thymidine uptake and microscopic evaluation; assay type: cell-based; details: at concentrations effective against T. gondii
Protocol: as §1

[7] = test system: P. berghei; assay: P. berghei murine model; assay type: in vivo; details: subcutaneously, 3 or 38 mg/kg
[8] = target: P. falciparum FAB I (Plasmodium falciparum, UniProt Q9BH77); assay: Fab I enzyme activity (NADH dependent); assay type: biochemical; details: purified P. falciparum FAB I
[9] = test system: T. gondii; details: literature (Waller et al., 1998; Zuther et al., 1999); cited from earlier work
[10] = 48 h, read-out: IC 50 when cultured with P Falciparum, strain TM91C234, 48 h
[11] = 48 h, read-out: IC 50 when cultured with P Falciparum, strain W2 (chloroquine and pyrimethamine resistant), 48 h
[12] = TM90C2A, 48 h, read-out: IC 50 when cultured with P Falciparum, strain TM90C2A (chloroquine and mefloquine resistant, admission isolate), 48 h
[13] = TM90C2B, 48 h, read-out: IC 50 when cultured with P Falciparum, strain TM90C2B (recrudescent isolate, atovaquone resistant), 48 h

Sequence of P. falciparum FAB I (Q9BH77 entry or part of it): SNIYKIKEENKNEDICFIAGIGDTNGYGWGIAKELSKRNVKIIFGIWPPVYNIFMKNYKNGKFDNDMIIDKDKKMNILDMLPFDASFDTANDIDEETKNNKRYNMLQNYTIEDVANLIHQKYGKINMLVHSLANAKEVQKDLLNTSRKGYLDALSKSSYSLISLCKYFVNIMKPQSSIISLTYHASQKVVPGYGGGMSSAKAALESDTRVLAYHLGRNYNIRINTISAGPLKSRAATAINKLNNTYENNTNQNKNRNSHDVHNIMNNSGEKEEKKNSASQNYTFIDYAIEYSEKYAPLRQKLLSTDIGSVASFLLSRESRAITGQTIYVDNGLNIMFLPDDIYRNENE

O=C(NO)c1ccccc1O [SHAM]
effect on Cryptosporidia [1]: inhibitory effects

C/C=C/C/C=C/CCC(=O)[C@H]1O[C@H]1C(N)=O
synergy in vitro [2]: Synergy

O=C(O)CNCP(=O)(O)O [NPMG]
EPSP synthase enzyme activity [3]: inhibition | in vitro growth of asexual erythrocytic forms ([4]; P. falciparum): inhibition | effect on Cryptosporidia [1]: inhibitory effects | uptake of tritiated uracil by tachyzoites ([5]; RH strain): inhibited

C[C@@H](Oc1ccc(Oc2ncc(Cl)cc2F)cc1)C(=O)O [clodinafop]
inhibition of T. gondii ([5]; 1 micromolar): ionhibited

CCN(CC)CCCC(C)Nc1ccnc2cc(Cl)ccc12 (stereo not shown) [Chloroquine]
IC50 ([4]; 48 h, read-out: IC 50 when cultured with P Falciparum, strain D6 (chloroquine and pyrimethamine susceptible), 48 h): 0.0038 µg/mL (≈ 0.0119 µM) | IC50 [4, 10]: 0.0461 µg/mL (≈ 0.144 µM) | IC50 [4, 11]: 0.162 µg/mL (≈ 0.508 µM) | IC50 [4, 12]: 0.0573 µg/mL (≈ 0.179 µM) | IC50 [4, 13]: 0.0827 µg/mL (≈ 0.259 µM) | IC50 ([4]; W2, read-out: IC50 against pyrimethamine resistant P. falciparum (W2), strain W2, text value): 0.16 µg/mL (≈ 0.5 µM)

OC(c1cc(C(F)(F)F)nc2c(C(F)(F)F)cccc12)C1CCCCN1 (stereo not shown) [Mefloquine]
IC50 ([4]; 48 h, read-out: IC 50 when cultured with P Falciparum): 0.0053 µg/mL (≈ 0.014 µM) | IC50 [4, 10]: 0.0196 µg/mL (≈ 0.0518 µM) | IC50 [4, 11]: 0.002 µg/mL (≈ 0.00529 µM) | IC50 [4, 12]: 0.0245 µg/mL (≈ 0.0648 µM) | IC50 [4, 13]: 0.0193 µg/mL (≈ 0.051 µM)

Oc1cc(Cl)ccc1Oc1ccc(Cl)cc1Cl [Triclosan, 5-chloro-2-[2,4 dichloropheoxyl] phenol]
IC50 ([4]; 48 h, strain TM91C234, 48 h, read-out: IC 50 when cultured with P Falciparum): 1.8 µg/mL (≈ 6.22 µM) | IC50 ([4]; TM90C2A, 48 h, read-out: IC 50 when cultured with P Falciparum): 1.89 µg/mL (≈ 6.53 µM) | IC50 ([4]; TM90C2B, 48 h, strain TM90C2B (recrudescent isolate, atovaquone resistant), 48 h, read-out: IC 50 when cultured with P Falciparum): 1.33 µg/mL (≈ 4.59 µM) | IC50 ([4]; W2, strain W2, text value, read-out: IC50 against pyrimethamine resistant P. falciparum (W2)): 0.15 µg/mL (≈ 0.518 µM) | IC50 ([4]; range over strains, read-out: IC50, growth and survival of P. falciparum): 0.15 to 2 µg/mL (≈ 0.518 to 6.91 µM) | toxicity to host cells / host cells uptake of thymidine [6]: no toxicity | toxicity to host cells / host cells uptake of thymidine ([6]; listed as triclosan): no inhibitory effect | death [7]: prevented death | parasitemia [7]: cleared parasitemia | toxicity in P. berghei murine model [7]: nontoxic | FAB I enzyme activity [8]: inhibited | percentage inhibition of T. gondii uracil uptake ([5]; day 1, separate experiment): 20% | percentage inhibition of T. gondii uracil uptake ([5]; day 4, separate experiment): 72% | IC50, T. gondii uracil uptake ([5]; RH strain in HFF, 4 days after infection): 62 nanograms/ml | IC50 ([5]; Toxoplasma gondii, Fibroblast, 96 h, read-out: IC50, T. gondii uracil uptake): 0.062 µg/mL (≈ 0.214 µM)

NC1C=CC=C(C(=O)O)C1 (racemic) [gabaculine]
effect on Cryptosporidia [1]: inhibitory effects

O=C(O)CC[N+](=O)[O-] [3NPA]
effect on Cryptosporidia [1]: inhibited

Oc1cccc2cccnc12 [8-OH-quinoline]
effect on Cryptosporidia [1]: inhibitory effects

C=C/C(C)=C/[C@@]1(C)SC(=O)C(C)=C1O [thiolactomycin]
growth of T. gondii in vitro [9]: restrict the growth
